System: intraocular pressure (IOP)
Assay: Intraocular pressure in New Zealand White rabbits, topical dosing four times daily
Assay type: in vivo
Conditions: for Intraocular Pressure, MEAN: A.M. readings
Method: On Days 1-31, animals received daily topical doses of the appropriate test article into the right eye. Animals were dosed four times per day, with doses administered 2 hours apart. Doses were administered using a calibrated 50-μL pipette. The eyelids were held close for 10 seconds immediately following dosing. The time of each dose administration was recorded.
Intraocular pressure (“IOP”) was determined for both eyes of each animal on Days 3, 5, 10, 12, 16, 18, 22, 24, 26, 30, and 32. IOP was evaluated with a Medtronic Solan, Model 30 classic pneumatonometer. Proparacaine hydrochloride 0.5% (1 drop) was delivered to each eye prior to IOP measurement. IOP was measured on Monday. Wednesday, and Friday of each week. A two-point diurnal curve was established: IOP was recorded at 8 a.m. and 12 p.m. on Day 3, and at 8 a.m. and 2 p.m. on later days, with a ±1 hour range for each of these times. The time of the measurements was recorded.
Descriptive statistics were prepared for IOP data of each treatment group (left and right eyes separately) at each measurement interval. The statistics included the number of observations (“N”) mean, standard deviation (“STD”), and standard error (“SEM”). Statistical analyses were conducted on IOP results using Statistical Analysis Systems (SAS Institute. Inc., Cary, N.C. V8.0). Parameters were evaluated using analysis of variance/GLM Procedure followed by Tukey's Standardized Range Test (Tukey, 1985) for post hoc comparisons of group means. The level of significance was set at a probability of p<0.05 for all statistical procedures. Group IOP means were compared at each interval, with left and right eyes compared separately.

In the case of `Cc1ccc2c(NC[C@](O)(CC(C)(C)c3cc(F)cc4c3OCC4)C(F)(F)F)cccc2n1` [BOL-303242-X, mapracorat], the “Differences in mean IOP versus BSS group” value (BOL-303242-X groups B-D (10, 5, 1 mg/g), p<0.05) is reported as “No statistically significant (p<0.05) differences”, the “Effect of daily dosing on IOP compared to daily dosing with dexamethasone” value (BOL-303242-X suspensions 0.05, 0.25, 0.5 mg/dose, four times daily up to 31 days) is reported as “did not increase IOP” and the “Course of mean IOP after treatment began” value (left and right eyes, dexamethasone 0.1% (Group A), BOL-303242-X 10, 5, 1 mg/g (Groups B-D), four times daily) is reported as “not seen”. The “Intraocular Pressure, MEAN” value (treated right eyes, Day 3, 1 mg/g (Group D)) was 23.0 mmHg, the “Intraocular Pressure, MEAN” value (treated right eyes, Day 3, 5 mg/g (Group C)) was 23.7 mmHg and the “Intraocular Pressure, MEAN” value (treated right eyes, Day 3, 10 mg/g (Group B)) was 22.7 mmHg. For the same compound, the “Intraocular Pressure, MEAN” value (treated right eyes, Day 5, 1 mg/g (Group D)) was 24.7 mmHg, the “Intraocular Pressure, MEAN” value (treated right eyes, Day 5, 5 mg/g (Group C)) was 24.7 mmHg and the “Intraocular Pressure, MEAN” value (treated right eyes, Day 5, 10 mg/g (Group B)) was 23.8 mmHg. For the same compound, the “Intraocular Pressure, MEAN” value (treated right eyes, Day 10, 1 mg/g (Group D)) was 24.8 mmHg, the “Intraocular Pressure, MEAN” value (treated right eyes, Day 10, 5 mg/g (Group C)) was 25.2 mmHg and the “Intraocular Pressure, MEAN” value (treated right eyes, Day 10, 10 mg/g (Group B)) was 24.5 mmHg. For the same compound, the “Intraocular Pressure, MEAN” value (treated right eyes, Day 12, 1 mg/g (Group D)) was 23.4 mmHg, the “Intraocular Pressure, MEAN” value (treated right eyes, Day 12, 5 mg/g (Group C)) was 25.0 mmHg and the “Intraocular Pressure, MEAN” value (treated right eyes, Day 12, 10 mg/g (Group B)) was 23.9 mmHg. For the same compound, the “Intraocular Pressure, MEAN” value (treated right eyes, Day 16, 1 mg/g (Group D)) was 22.1 mmHg, the “Intraocular Pressure, MEAN” value (treated right eyes, Day 16, 5 mg/g (Group C)) was 24.3 mmHg and the “Intraocular Pressure, MEAN” value (treated right eyes, Day 16, 10 mg/g (Group B)) was 23.4 mmHg. The “Intraocular Pressure, MEAN” value (treated right eyes, Day 18, 1 mg/g (Group D)) was 23.7 mmHg, the “Intraocular Pressure, MEAN” value (treated right eyes, Day 18, 5 mg/g (Group C)) was 23.9 mmHg and the “Intraocular Pressure, MEAN” value (treated right eyes, Day 18, 10 mg/g (Group B)) was 22.3 mmHg. For the same compound, the “Intraocular Pressure, MEAN” value (treated right eyes, Day 22, 1 mg/g (Group D)) was 23.2 mmHg, the “Intraocular Pressure, MEAN” value (treated right eyes, Day 22, 5 mg/g (Group C)) was 22.4 mmHg and the “Intraocular Pressure, MEAN” value (treated right eyes, Day 22, 10 mg/g (Group B)) was 22.4 mmHg. The “Intraocular Pressure, MEAN” value (treated right eyes, Day 24, 1 mg/g (Group D)) was 22.1 mmHg, the “Intraocular Pressure, MEAN” value (treated right eyes, Day 24, 5 mg/g (Group C)) was 23.8 mmHg and the “Intraocular Pressure, MEAN” value (treated right eyes, Day 24, 10 mg/g (Group B)) was 21.2 mmHg. The “Intraocular Pressure, MEAN” value (treated right eyes, Day 26, 1 mg/g (Group D)) was 23.1 mmHg, the “Intraocular Pressure, MEAN” value (treated right eyes, Day 26, 5 mg/g (Group C)) was 22.1 mmHg and the “Intraocular Pressure, MEAN” value (treated right eyes, Day 26, 10 mg/g (Group B)) was 21.8 mmHg. The “Intraocular Pressure, MEAN” value (treated right eyes, Day 30, 1 mg/g (Group D)) was 24.2 mmHg, the “Intraocular Pressure, MEAN” value (treated right eyes, Day 30, 5 mg/g (Group C)) was 22.9 mmHg and the “Intraocular Pressure, MEAN” value (treated right eyes, Day 30, 10 mg/g (Group B)) was 22.7 mmHg. The “Intraocular Pressure, MEAN” value (treated right eyes, Day 32, 1 mg/g (Group D)) was 24.9 mmHg, the “Intraocular Pressure, MEAN” value (treated right eyes, Day 32, 5 mg/g (Group C)) was 23.4 mmHg and the “Intraocular Pressure, MEAN” value (treated right eyes, Day 32, 10 mg/g (Group B)) was 23.9 mmHg. The “Intraocular Pressure, MEAN” value (treated right eyes, Pre-Study, 1 mg/g (Group D)) was 24.4 mmHg, the “Intraocular Pressure, MEAN” value (treated right eyes, Pre-Study, 5 mg/g (Group C)) was 24.8 mmHg and the “Intraocular Pressure, MEAN” value (treated right eyes, Pre-Study, 10 mg/g (Group B)) was 24.0 mmHg. For the same compound, the “Intraocular Pressure, MEAN” value (untreated left eyes, Day 3, 1 mg/g (Group D)) was 23.5 mmHg, the “Intraocular Pressure, MEAN” value (untreated left eyes, Day 3, 5 mg/g (Group C)) was 23.8 mmHg and the “Intraocular Pressure, MEAN” value (untreated left eyes, Day 3, 10 mg/g (Group B)) was 23.3 mmHg. For the same compound, the “Intraocular Pressure, MEAN” value (untreated left eyes, Day 5, 1 mg/g (Group D)) was 24.4 mmHg, the “Intraocular Pressure, MEAN” value (untreated left eyes, Day 5, 5 mg/g (Group C)) was 24.4 mmHg and the “Intraocular Pressure, MEAN” value (untreated left eyes, Day 5, 10 mg/g (Group B)) was 23.4 mmHg. The “Intraocular Pressure, MEAN” value (untreated left eyes, Day 10, 1 mg/g (Group D)) was 24.5 mmHg, the “Intraocular Pressure, MEAN” value (untreated left eyes, Day 10, 5 mg/g (Group C)) was 24.6 mmHg and the “Intraocular Pressure, MEAN” value (untreated left eyes, Day 10, 10 mg/g (Group B)) was 24.0 mmHg. For the same compound, the “Intraocular Pressure, MEAN” value (untreated left eyes, Day 12, 1 mg/g (Group D)) was 22.2 mmHg, the “Intraocular Pressure, MEAN” value (untreated left eyes, Day 12, 5 mg/g (Group C)) was 23.8 mmHg and the “Intraocular Pressure, MEAN” value (untreated left eyes, Day 12, 10 mg/g (Group B)) was 23.8 mmHg.

— patent US20120316199A1, “COMPOSITIONS AND METHODS FOR TREATING, CONTROLLING, REDUCING, OR AMELIORATING INFLAMMATORY PAIN” (priority 2011, published 2012)
